In article PMC3553658 (Combinatorial chemistry & high throughput screening, 2012):
Entries after “also recorded” stand apart in the source; their conditions may differ.

Key:
Format in all cases: biochemical
SETD2 [1] = biological target: T1, SETD2 (Homo sapiens, UniProt Q9BYW2); assay: Filter-paper assay dose response, SETD2; details: up to 100 μM
T1 sequence (Q9BYW2 1347-1711): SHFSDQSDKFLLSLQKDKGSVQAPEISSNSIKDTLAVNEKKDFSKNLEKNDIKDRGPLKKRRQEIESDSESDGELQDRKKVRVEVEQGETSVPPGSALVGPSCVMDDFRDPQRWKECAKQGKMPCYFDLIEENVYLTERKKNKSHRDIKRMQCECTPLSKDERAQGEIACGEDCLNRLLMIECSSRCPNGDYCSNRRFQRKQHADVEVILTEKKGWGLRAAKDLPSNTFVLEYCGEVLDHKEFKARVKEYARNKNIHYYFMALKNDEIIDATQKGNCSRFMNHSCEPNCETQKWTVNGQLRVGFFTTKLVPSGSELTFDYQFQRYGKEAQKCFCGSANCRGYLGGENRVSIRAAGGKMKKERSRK

SET8 [2] = biological target: T2, SET8 (Homo sapiens, UniProt Q9NQR1); assay: SPIA-bead assay; details: read-out: SET8 [% IHBN], SPIA primary screen, 10 μM compound, duplicate
T2 sequence (Q9NQR1 191-352 isoform Q9NQR1-2): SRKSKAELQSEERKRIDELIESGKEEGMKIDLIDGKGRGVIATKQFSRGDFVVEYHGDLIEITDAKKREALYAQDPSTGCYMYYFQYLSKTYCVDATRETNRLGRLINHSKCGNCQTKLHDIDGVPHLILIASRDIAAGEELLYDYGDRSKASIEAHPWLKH

SET7/9 [3] = biological target: T3, SET7/9 (Homo sapiens, UniProt Q8WTS6); assay: Filter-paper assay dose response, SET7/9; details: up to 100 μM
T3 sequence (Q8WTS6 1-366): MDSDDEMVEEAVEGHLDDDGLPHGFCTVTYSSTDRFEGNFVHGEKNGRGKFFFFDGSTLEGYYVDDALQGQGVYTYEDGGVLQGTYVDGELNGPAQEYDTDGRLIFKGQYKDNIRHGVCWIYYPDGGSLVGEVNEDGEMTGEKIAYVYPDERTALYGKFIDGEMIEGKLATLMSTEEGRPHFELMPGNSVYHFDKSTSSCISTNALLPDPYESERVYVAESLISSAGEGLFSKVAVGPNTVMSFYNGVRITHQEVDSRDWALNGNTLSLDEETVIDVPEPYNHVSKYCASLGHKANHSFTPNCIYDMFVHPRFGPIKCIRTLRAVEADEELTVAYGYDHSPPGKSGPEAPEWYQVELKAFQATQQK

SET8 [4] = biological target: T2, SET8; assay: Filter-paper assay dose response, SET8; details: up to 100 μM
SETD2 [5] = biological target: T1, SETD2; assay: SPIA-bead assay; details: SPIA primary screen, 10 μM compound, duplicate
EuHMTase1 = biological target: T4, EuHMTase1 (Homo sapiens, UniProt Q9H9B1); assay: Filter-paper assay dose response, EuHMTase1; details: up to 100 μM
T4 sequence (Q9H9B1 982-1266): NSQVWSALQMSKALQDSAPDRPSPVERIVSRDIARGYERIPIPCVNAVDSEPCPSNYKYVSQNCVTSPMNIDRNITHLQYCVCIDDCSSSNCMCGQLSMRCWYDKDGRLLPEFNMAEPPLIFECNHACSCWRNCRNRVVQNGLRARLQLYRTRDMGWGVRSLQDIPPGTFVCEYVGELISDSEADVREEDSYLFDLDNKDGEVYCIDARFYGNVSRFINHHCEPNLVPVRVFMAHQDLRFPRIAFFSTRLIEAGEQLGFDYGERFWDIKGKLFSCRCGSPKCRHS

SET7/9 [6] = biological target: T3, SET7/9; assay: SPIA-bead assay; details: SPIA primary screen, 10 μM compound, duplicate

In the case of `O=C(O)CCCC[C@@H]1SC[C@@H]2NC(=O)N[C@@H]21` [Biotin], the “Inhibition of SETD2 in filter-paper assay” value (SETD2 [1]) is reported as “no inhibition; also recorded: did not find inhibition”, the inhibition at 10 µM (SET8 [2]) is reported as 60 to 90% and the “Inhibition of SET7/9 in filter-paper assay” value (SET7/9 [3]) is reported as “no inhibition; also recorded: did not find inhibition”. For the same compound, the “Inhibition of SET8 in filter-paper assay” value (SET8 [4]) was “no inhibition; also recorded: did not find inhibition”, the “SETD2 [% IHBN]” value (SETD2 [5]) was 60–90% and the “Inhibition of EuHMTase1 in filter-paper assay” value (EuHMTase1) was “no inhibition; also recorded: did not find inhibition”.

In the case of `O=C(Nc1ccc(C(=O)Nc2ccc(C(=O)Nc3ccc(S(=O)(=O)[O-])c4cc(S(=O)(=O)[O-])cc(S(=O)(=O)[O-])c34)cc2)cc1)Nc1ccc(C(=O)Nc2ccc(C(=O)Nc3ccc(S(=O)(=O)[O-])c4cc(S(=O)(=O)[O-])cc(S(=O)(=O)[O-])c34)cc2)cc1.[Na+].[Na+].[Na+].[Na+].[Na+].[Na+]` [NF 279, 8,8′-[Carbonylbis(imino-4,1-phenylenecarbonylimino-4,1-phenylenecarbonylimino)]bis-1,3,5-naphtlenetrisulfonic acid hexasodium salt], the “SET7/9 [% IHBN]” value (SET7/9 [6]) is reported as 83%.
